Data reported in ChEMBL document CHEMBL3124838, “Discovery of 6-aryl-azabenzimidazoles that inhibit the TBK1/IKK-ε kinases” (Bioorg Med Chem Lett, 2014).

Experiments:
[1] = molecular target: MAP kinase-activated protein kinase 2 (Homo sapiens) (UniProt P49137); assay: Inhibition of human MAPKAP-K2 assessed as residual activity at 1 uM relative to control
[2] = molecular target: Tyrosine-protein kinase ABL1 (Homo sapiens) (UniProt P00519); assay: Inhibition of human ABL assessed as residual activity at 1 uM relative to control
[3] = molecular target: Serine/threonine-protein kinase PAK 4 (Homo sapiens) (UniProt O96013); assay: Inhibition of human PAK4 assessed as residual activity at 1 uM relative to control
[4] = molecular target: T1, Protein kinase C epsilon type (Homo sapiens) (UniProt Q02156); assay: Inhibition of human PKC-epsilon assessed as residual activity at 1 uM relative to control
T1 sequence (whole entry): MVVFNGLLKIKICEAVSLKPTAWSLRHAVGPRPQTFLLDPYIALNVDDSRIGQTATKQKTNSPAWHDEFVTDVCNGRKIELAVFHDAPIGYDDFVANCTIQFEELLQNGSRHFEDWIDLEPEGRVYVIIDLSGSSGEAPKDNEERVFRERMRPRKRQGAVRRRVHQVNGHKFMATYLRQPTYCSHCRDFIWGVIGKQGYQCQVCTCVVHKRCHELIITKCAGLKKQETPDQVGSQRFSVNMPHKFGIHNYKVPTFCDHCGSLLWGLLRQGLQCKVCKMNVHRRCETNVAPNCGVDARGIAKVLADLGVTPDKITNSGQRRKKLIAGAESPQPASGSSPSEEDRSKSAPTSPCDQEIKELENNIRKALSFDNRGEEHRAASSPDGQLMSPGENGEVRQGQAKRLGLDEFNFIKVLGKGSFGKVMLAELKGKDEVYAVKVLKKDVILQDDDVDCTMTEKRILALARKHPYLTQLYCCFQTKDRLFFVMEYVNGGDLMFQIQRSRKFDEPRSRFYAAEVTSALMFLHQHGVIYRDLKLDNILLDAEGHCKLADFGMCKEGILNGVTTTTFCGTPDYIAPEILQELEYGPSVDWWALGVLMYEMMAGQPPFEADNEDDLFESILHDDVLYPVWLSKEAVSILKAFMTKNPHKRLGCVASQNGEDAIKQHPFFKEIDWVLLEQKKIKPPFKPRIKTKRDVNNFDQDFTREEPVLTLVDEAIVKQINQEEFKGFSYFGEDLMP

[5] = molecular target: T2, Tyrosine-protein kinase receptor TYRO3 (Homo sapiens) (UniProt Q06418); assay: Inhibition of human RSE assessed as residual activity at 1 uM relative to control
T2 sequence (whole entry): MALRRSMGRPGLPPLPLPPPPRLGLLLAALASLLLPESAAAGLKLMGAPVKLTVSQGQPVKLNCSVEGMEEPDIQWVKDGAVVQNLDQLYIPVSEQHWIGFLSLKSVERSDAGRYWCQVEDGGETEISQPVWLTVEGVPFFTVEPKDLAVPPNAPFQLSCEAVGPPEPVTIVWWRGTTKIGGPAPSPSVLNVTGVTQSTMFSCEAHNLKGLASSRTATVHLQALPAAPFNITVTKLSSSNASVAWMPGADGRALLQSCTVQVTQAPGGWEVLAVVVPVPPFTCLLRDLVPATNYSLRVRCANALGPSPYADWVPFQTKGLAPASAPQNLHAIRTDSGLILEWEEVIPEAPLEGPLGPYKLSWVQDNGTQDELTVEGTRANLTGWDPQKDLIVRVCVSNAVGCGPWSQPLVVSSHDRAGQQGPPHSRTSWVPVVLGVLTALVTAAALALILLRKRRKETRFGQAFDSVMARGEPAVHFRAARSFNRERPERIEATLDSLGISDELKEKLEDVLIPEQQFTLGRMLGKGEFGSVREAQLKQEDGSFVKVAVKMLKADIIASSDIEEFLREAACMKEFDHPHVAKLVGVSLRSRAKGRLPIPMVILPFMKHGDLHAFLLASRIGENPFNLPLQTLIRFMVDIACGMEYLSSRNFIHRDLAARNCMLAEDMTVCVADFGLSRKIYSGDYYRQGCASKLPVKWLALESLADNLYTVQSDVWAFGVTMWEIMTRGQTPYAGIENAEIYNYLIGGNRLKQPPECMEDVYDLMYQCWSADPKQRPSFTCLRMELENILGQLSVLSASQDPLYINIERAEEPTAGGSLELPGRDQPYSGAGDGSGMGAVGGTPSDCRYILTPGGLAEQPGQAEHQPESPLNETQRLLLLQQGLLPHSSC

[6] = molecular target: Insulin-like growth factor 1 receptor (Homo sapiens) (UniProt P08069); assay: Inhibition of human IGF-1R assessed as residual activity at 1 uM relative to control
[7] = molecular target: Fibroblast growth factor receptor 3 (Homo sapiens) (UniProt P22607); assay: Inhibition of human FGFR3 assessed as residual activity at 1 uM relative to control
[8] = molecular target: Tyrosine-protein kinase Fer (Homo sapiens) (UniProt P16591); assay: Inhibition of human FER assessed as residual activity at 1 uM relative to control
[9] = molecular target: Mast/stem cell growth factor receptor Kit (Homo sapiens) (UniProt P10721); assay: Inhibition of human cKIT assessed as residual activity at 1 uM relative to control
[10] = molecular target: T3, Myotonin-protein kinase (Homo sapiens) (UniProt Q09013); assay: Inhibition of human DMPK assessed as residual activity at 1 uM relative to control
T3 sequence (whole entry): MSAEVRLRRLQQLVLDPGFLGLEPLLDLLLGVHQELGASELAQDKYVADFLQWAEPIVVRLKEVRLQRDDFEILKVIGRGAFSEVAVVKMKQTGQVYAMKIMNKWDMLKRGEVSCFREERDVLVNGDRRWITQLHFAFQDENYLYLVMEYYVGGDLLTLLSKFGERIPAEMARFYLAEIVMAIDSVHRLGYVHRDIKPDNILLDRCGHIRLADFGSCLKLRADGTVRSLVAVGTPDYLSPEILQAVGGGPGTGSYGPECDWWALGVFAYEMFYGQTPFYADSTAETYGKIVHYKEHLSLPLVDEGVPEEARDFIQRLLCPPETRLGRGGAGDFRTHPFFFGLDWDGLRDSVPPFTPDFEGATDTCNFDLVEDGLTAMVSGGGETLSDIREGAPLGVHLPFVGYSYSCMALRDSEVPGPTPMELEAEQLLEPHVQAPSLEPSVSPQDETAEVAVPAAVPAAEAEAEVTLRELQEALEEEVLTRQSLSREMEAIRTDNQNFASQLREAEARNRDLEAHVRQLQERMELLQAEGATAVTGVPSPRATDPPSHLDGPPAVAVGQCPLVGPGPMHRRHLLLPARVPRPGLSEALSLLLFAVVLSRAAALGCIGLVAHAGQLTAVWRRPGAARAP

[11] = molecular target: Tyrosine-protein kinase ABL2 (Homo sapiens) (UniProt P42684); assay: Inhibition of human ARG assessed as residual activity at 1 uM relative to control
[12] = molecular target: Rho-associated protein kinase 2 (Homo sapiens) (UniProt O75116); assay: Inhibition of human ROCK-2 assessed as residual activity at 1 uM relative to control
Rho-associated protein kinase 2 (Homo sapiens), sequence (O75116 whole entry, looked up): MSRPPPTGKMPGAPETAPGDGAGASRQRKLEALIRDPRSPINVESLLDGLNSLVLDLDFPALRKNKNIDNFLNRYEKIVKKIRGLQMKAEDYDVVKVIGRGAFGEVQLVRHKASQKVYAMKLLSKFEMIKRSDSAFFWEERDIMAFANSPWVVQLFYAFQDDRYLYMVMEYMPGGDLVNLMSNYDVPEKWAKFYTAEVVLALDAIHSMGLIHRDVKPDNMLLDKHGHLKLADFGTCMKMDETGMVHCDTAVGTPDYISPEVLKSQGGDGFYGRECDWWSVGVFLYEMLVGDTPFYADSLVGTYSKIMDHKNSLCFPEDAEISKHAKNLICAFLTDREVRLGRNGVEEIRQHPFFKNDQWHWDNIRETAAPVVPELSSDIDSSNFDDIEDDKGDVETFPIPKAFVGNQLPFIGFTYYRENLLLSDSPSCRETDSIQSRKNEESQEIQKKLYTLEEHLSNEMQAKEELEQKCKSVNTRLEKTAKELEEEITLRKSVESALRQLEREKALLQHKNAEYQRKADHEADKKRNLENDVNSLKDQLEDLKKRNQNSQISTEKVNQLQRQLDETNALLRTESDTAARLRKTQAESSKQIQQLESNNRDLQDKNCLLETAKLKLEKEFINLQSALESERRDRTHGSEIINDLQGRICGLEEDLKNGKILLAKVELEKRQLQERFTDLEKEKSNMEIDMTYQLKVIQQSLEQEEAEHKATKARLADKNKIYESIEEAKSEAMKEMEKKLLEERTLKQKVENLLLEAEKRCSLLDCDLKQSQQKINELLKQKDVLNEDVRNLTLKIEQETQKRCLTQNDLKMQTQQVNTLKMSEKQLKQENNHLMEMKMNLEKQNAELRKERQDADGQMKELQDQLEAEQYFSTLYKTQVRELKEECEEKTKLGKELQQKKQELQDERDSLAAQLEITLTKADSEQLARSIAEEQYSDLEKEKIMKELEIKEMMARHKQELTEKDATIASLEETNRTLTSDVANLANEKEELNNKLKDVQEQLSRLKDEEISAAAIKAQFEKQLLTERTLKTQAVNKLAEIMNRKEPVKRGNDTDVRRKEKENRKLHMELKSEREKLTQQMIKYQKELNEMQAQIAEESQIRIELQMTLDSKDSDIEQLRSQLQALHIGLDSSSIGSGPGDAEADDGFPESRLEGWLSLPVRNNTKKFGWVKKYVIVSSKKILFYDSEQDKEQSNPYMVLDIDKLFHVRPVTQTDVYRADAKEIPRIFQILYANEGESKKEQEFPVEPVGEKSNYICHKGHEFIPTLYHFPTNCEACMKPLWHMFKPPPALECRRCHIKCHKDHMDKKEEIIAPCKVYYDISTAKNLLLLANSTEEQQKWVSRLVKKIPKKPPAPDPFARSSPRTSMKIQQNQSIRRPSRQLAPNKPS

MAP kinase-activated protein kinase 2 (Homo sapiens), sequence (P49137 whole entry, looked up): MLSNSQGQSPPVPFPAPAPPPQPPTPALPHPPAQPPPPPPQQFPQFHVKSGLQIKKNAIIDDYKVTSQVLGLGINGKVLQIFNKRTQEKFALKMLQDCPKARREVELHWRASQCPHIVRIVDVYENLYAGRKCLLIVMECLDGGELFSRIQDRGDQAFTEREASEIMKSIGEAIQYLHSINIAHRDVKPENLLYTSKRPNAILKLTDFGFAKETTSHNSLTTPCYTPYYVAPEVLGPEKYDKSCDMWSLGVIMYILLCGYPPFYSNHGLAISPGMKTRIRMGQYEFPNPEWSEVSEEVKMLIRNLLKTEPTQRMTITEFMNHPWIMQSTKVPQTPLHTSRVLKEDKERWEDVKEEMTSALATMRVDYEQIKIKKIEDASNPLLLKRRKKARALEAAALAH
Tyrosine-protein kinase ABL2 (Homo sapiens), sequence (P42684 whole entry): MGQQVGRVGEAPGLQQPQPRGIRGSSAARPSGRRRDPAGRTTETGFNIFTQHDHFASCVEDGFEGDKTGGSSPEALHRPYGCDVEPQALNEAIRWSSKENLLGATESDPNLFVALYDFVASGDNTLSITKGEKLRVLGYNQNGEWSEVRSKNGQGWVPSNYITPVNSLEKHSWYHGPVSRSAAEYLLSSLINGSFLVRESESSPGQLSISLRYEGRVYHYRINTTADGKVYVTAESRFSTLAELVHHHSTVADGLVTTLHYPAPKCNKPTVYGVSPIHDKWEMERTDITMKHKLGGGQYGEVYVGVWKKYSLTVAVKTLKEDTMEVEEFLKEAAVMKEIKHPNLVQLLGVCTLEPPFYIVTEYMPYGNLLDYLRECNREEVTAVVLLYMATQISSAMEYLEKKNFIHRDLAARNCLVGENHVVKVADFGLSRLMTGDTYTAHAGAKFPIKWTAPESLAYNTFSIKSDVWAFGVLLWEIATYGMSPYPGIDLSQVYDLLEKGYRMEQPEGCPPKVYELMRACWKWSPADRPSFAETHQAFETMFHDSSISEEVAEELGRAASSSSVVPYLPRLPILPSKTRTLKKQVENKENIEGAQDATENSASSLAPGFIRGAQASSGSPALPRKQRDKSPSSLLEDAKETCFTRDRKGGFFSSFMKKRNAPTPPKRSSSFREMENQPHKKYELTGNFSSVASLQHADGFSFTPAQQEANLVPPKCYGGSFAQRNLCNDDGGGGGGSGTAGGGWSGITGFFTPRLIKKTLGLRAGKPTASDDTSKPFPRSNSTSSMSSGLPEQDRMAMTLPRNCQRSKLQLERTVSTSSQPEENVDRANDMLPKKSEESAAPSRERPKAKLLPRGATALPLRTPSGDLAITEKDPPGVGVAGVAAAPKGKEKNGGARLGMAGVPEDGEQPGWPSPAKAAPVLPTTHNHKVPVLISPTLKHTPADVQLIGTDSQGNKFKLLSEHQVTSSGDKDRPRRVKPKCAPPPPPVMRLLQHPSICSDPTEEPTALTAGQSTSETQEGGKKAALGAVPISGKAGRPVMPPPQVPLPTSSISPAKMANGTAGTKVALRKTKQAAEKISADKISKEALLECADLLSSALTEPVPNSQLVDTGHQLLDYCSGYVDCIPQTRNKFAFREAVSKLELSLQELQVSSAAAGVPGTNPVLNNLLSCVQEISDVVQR
Insulin-like growth factor 1 receptor (Homo sapiens), sequence (P08069 31-736 limits assumed): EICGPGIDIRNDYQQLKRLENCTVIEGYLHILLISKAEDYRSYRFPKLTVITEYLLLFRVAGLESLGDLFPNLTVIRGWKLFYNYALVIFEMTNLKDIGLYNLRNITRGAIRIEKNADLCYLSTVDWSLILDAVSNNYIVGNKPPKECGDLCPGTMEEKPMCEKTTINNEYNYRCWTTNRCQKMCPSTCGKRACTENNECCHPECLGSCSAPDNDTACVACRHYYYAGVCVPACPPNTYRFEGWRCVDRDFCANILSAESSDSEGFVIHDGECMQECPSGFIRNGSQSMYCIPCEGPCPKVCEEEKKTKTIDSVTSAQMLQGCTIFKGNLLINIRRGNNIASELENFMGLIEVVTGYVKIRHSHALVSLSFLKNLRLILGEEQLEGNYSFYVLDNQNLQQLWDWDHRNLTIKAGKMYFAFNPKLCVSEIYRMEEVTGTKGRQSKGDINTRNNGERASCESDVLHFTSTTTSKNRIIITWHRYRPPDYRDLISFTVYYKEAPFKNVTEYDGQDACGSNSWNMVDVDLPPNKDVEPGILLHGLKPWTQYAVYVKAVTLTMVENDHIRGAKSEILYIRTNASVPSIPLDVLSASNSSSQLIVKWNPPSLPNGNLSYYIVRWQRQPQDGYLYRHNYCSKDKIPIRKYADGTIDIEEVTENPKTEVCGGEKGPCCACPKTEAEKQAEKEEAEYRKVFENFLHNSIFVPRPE
Insulin-like growth factor 1 receptor (Homo sapiens), sequence (P08069 741-1367 limits assumed): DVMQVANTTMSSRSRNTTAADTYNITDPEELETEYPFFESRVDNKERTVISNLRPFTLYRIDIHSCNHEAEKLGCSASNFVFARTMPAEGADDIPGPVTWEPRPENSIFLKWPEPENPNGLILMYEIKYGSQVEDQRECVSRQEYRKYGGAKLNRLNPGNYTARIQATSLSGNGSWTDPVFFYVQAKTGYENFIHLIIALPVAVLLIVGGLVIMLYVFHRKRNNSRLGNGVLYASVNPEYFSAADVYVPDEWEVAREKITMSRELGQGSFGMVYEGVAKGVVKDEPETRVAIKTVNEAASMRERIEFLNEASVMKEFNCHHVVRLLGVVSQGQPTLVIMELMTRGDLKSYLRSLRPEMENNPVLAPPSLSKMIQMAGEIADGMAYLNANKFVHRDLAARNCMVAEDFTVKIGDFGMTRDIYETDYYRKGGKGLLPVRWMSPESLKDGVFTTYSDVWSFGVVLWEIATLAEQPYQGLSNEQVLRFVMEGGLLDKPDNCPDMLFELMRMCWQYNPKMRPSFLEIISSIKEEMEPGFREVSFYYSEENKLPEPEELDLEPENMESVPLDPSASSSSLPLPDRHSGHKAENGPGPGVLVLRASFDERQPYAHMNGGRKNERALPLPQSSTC
Serine/threonine-protein kinase PAK 4 (Homo sapiens), sequence (O96013 whole entry, looked up): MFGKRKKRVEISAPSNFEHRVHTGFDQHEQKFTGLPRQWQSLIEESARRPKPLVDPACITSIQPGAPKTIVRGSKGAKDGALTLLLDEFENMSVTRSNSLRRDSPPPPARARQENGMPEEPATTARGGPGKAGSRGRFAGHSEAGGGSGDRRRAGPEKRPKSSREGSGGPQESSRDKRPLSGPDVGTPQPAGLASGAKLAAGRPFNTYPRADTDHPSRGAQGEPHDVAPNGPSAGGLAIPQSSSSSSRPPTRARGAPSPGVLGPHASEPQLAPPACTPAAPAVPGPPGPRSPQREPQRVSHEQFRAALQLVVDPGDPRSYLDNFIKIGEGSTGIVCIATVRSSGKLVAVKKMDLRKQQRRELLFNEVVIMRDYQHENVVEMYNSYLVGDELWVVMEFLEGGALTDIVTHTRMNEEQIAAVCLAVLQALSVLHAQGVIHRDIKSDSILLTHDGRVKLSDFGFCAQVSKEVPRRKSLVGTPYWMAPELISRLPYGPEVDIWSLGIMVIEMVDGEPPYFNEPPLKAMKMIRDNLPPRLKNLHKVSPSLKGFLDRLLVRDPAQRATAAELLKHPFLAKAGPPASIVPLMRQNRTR

| SMILES | Activity [1] | Activity [2] | Activity [3] | Activity [4] | Activity [5] | Activity [6] | Activity [7] | Activity [8] | Activity [9] | Activity [10] | Activity [11] | Activity [12] |
| --- | --- | --- | --- | --- | --- | --- | --- | --- | --- | --- | --- | --- |
| COc1ccc(-c2nc3cc(-c4csc(C(=O)NCCC(C)C)c4)cnc3[nH]2)cc1 | 94% | 10% | 83% | 85% | 104% | 105% | 79% | 104% | 107% | 100% | 52% | 102% |
| COc1ccc(-c2nc3cc(-c4csc(C(=O)NCC(C)(C)C)c4)cnc3[nH]2)cc1 | 98% | 8% | 87% | 90% | 104% | 98% | 80% | 100% | 112% | 104% | 60% | 108% |
| COc1ccc(-c2nc3cc(-c4csc(C(=O)NCC(C)C)c4)cnc3[nH]2)cc1 | 101% | -2% | 89% | 96% | 112% | 108% | 62% | 111% | 103% | 97% | 38% | 108% |
